For 57 molecules, solubility results are on record in patent US20070112043A1, “Acylated and non-acylated imidazo[2,1-b]-1,3,4,-thiadiazole-2-sulfonamides, and uses thereof” (priority 2003, published 2007).

A short description of the data set: physchem. To be noted: water.

Procedure: Alternatively, the sodium salt can be prepared in situ by dissolving the free acid in phosphate buffered saline (PBS) that has been buffered to a pH of 7.4. The solubility and stability of these solutions can be improved by the use of an aqueous soluble co-solvent such as, but not limited to HPCD. This solubility can be further improved by the addition of surfactants such as PEG 400. In general, the free acid is suspended in 10 wt/vol % HPDC (10 g dissolved in 100 mL water) and treated with 0.5M PBS (pH 7.4) such that the volumes are in a ratio of 75:25.

`NS(=O)(=O)c1nn2cc(-c3ccc(-c4cccs4)cc3)nc2s1` [Compound 107] displayed a solubility below 500 µg/mL.

`CC(C)(C)c1cc(-c2cn3nc(S(N)(=O)=O)sc3n2)c2c(c1)C(C)(C)CC2` [Compound 82] registered a solubility below 500 µg/mL.

On to `Cc1ccc(-c2cn3nc(S(N)(=O)=O)sc3n2)c(C)c1` [Compound 80], for which the solubility was below 500 µg/mL.

In the case of `COc1ccc(-c2cccc(-c3cn4nc(S(N)(=O)=O)sc4n3)c2)cc1` [Compound 109], the solubility is below 500 µg/mL.

`Cc1onc(-c2ccccc2)c1-c1cn2nc(S(N)(=O)=O)sc2n1` [Compound 136]: the solubility was below 500 µg/mL.

`NS(=O)(=O)c1nn2cc(-c3ccc(OC(F)(F)F)cc3)nc2s1` [Compound 67] had a solubility below 500 µg/mL.

For the molecule `Cc1c(-c2cn3nc(S(N)(=O)=O)sc3n2)sc2ccccc12` [Compound 133], the solubility was below 500 µg/mL.

`NS(=O)(=O)c1nn2cc(-c3ccc4c(c3)NC(=O)CO4)nc2s1` [Compound 128] yielded a solubility below 500 µg/mL.

`NS(=O)(=O)c1nn2cc(-c3cc(C(F)(F)F)cc(C(F)(F)F)c3)nc2s1` [Compound 86] displayed a solubility below 500 µg/mL.

Take `NS(=O)(=O)c1nn2cc(-c3ccc(Oc4ccc(F)c(F)c4)cc3)nc2s1` [Compound 112]: the solubility is below 500 µg/mL.

Molecule `NS(=O)(=O)c1nn2cc(-c3cc(C(F)(F)F)ccc3Cl)nc2s1` [Compound 85] registered a solubility below 500 µg/mL.

On to `NS(=O)(=O)c1nn2cc(-c3cc(-c4ccccc4)no3)nc2s1` [Compound 135], for which the solubility was below 500 µg/mL.

In the case of `COc1ccc(-c2ccc(-c3cn4nc(S(N)(=O)=O)sc4n3)cc2)cc1` [Compound 101], the solubility was below 500 µg/mL.

On to `NS(=O)(=O)c1nn2cc(-c3cccc(F)c3)nc2s1` [Compound 53], for which the solubility is below 500 µg/mL.

Turning to `NS(=O)(=O)c1nn2cc(-c3cc4ccccc4oc3=O)nc2s1` [Compound 127], the solubility was below 500 µg/mL.

With `CC(=O)OCCOc1ccc(-c2cn3nc(S(N)(=O)=O)sc3n2)cc1` [Compound 69], the solubility is below 500 µg/mL.

With `NS(=O)(=O)c1nn2cc(-c3ccc(F)c(F)c3)nc2s1` [Compound 55], the solubility was below 500 µg/mL.

For the molecule `NS(=O)(=O)c1nn2cc(-c3ccc(Oc4ccc(Cl)c(Cl)c4)cc3)nc2s1` [Compound 113], the solubility was below 500 µg/mL.

For `NS(=O)(=O)c1nn2cc(-c3ccc(-c4ccccc4)s3)nc2s1` [Compound 131], the solubility is below 500 µg/mL.

For the molecule `N#Cc1cccc(-c2cn3nc(S(N)(=O)=O)sc3n2)c1` [Compound 77], the solubility was below 500 µg/mL.

On to `NS(=O)(=O)c1nn2cc(-c3ccc(OCCCOCc4ccccc4)cc3)nc2s1` [Compound 73], for which the solubility is below 500 µg/mL.

Take `NS(=O)(=O)c1nn2cc(-c3ccc(Cl)c(Cl)c3Cl)nc2s1` [Compound 58]: the solubility is below 500 µg/mL.

Regarding `NS(=O)(=O)c1nn2cc(-c3ccc(-c4ccsc4)cc3)nc2s1` [Compound 108], the solubility was below 500 µg/mL.

As for `NS(=O)(=O)c1nn2cc(-c3ccc(N4CCCCC4)cc3)nc2s1` [Compound 96], the solubility is below 500 µg/mL.

Take `NS(=O)(=O)c1nn2cc(-c3cccc4ccccc34)nc2s1` [Compound 93]: the solubility was below 500 µg/mL.

`COCCOCCOc1ccc(-c2cn3nc(S(N)(=O)=O)sc3n2)cc1` [Compound 71] came in with a solubility below 500 µg/mL.

`NS(=O)(=O)c1nn2cc(-c3ccc(-c4ccccc4C(F)(F)F)cc3)nc2s1` [Compound 104] returned a solubility below 500 µg/mL.

In turn, `NS(=O)(=O)c1nn2cc(-c3cccs3)nc2s1` [Compound 130] returned a solubility below 500 µg/mL.

Turning to `NS(=O)(=O)c1nn2cc(-c3ccc(-c4cccc(OC(F)(F)F)c4)cc3)nc2s1` [Compound 102], the solubility is below 500 µg/mL.

`COc1ccc(Oc2ccc(-c3cn4nc(S(N)(=O)=O)sc4n3)cc2)cc1` [Compound 119]: the solubility is below 500 µg/mL.

In turn, `CC(C)(C)c1ccc(-c2cn3nc(S(N)(=O)=O)sc3n2)cc1` [Compound 81] yielded a solubility below 500 µg/mL.

The molecule `NS(=O)(=O)c1nn2cc(-c3cccc(Br)c3)nc2s1` [Compound 59] showed a solubility below 500 µg/mL.

`NS(=O)(=O)c1nn2cc(C(F)(F)F)nc2s1` [Compound 91] showed a solubility below 500 µg/mL.

In turn, `CC(C)c1ccc(Oc2ccc(-c3cn4nc(S(N)(=O)=O)sc4n3)cc2)cc1` [Compound 118] registered a solubility below 500 µg/mL.

The molecule `NS(=O)(=O)c1nn2cc(-c3ccc(-c4ccc(C(F)(F)F)cc4)cc3)nc2s1` [Compound 105] displayed a solubility below 500 µg/mL.

Consider `NS(=O)(=O)c1nn2cc(-c3ccc(-c4cc(C(F)(F)F)cc(C(F)(F)F)c4)cc3)nc2s1` [Compound 106], for which the solubility was below 500 µg/mL.

As to `NS(=O)(=O)c1nn2cc(-c3ccc(OCCO)cc3)nc2s1` [Compound 68], the solubility was below 500 µg/mL.

In turn, `NS(=O)(=O)c1nn2cc(-c3ccc(Br)cc3)nc2s1` [Compound 60] displayed a solubility below 500 µg/mL.

`NS(=O)(=O)c1nn2cc(-c3ccc(Oc4cccc(Br)c4)cc3)nc2s1` [Compound 115] yielded a solubility below 500 µg/mL.

In turn, `NS(=O)(=O)c1nn2cc(-c3ccc(Cl)c([N+](=O)[O-])c3)nc2s1` [Compound 75] gave a solubility below 500 µg/mL.

The molecule `NS(=O)(=O)c1nn2cc(-c3ccc(Oc4ccccc4Br)cc3)nc2s1` [Compound 114] returned a solubility below 500 µg/mL.

`NS(=O)(=O)c1nn2cc(-c3ccc(Oc4ccc(F)cc4)cc3)nc2s1` [Compound 111] came in with a solubility below 500 µg/mL.

Turning to `NS(=O)(=O)c1nn2cc(-c3ccc(OCCOCc4ccccc4)cc3)nc2s1` [Compound 72], the solubility is below 500 µg/mL.

The molecule `NS(=O)(=O)c1nn2cc(-c3ccc(-c4ccccc4)cc3)nc2s1` [Compound 98] had a solubility below 500 µg/mL.

Turning to `Cc1nc(C)c(-c2cn3nc(S(N)(=O)=O)sc3n2)s1` [Compound 139], the solubility is below 500 µg/mL.

In the case of `NS(=O)(=O)c1nn2cc(-c3cccc(OC(F)(F)F)c3)nc2s1` [Compound 66], the solubility was below 500 µg/mL.

On to `CC(C)(C)c1cc(-c2cn3nc(S(N)(=O)=O)sc3n2)cc(C(C)(C)C)c1` [Compound 87], for which the solubility is below 500 µg/mL.

`CN(C)c1cccc(Oc2ccc(-c3cn4nc(S(N)(=O)=O)sc4n3)cc2)c1` [Compound 117] displayed a solubility below 500 µg/mL.

In the case of `NS(=O)(=O)c1nn2cc(-c3ccc(-c4c(F)c(F)c(F)c(F)c4F)cc3)nc2s1` [Compound 99], the solubility was below 500 µg/mL.

`NS(=O)(=O)c1nn2cc(-c3ccc(F)cc3)nc2s1` [Compound 54]: the solubility is below 500 µg/mL.

For `CC1(C)CCC(C)(C)c2cc(-c3cn4nc(S(N)(=O)=O)sc4n3)ccc21` [Compound 88], the solubility is below 500 µg/mL.

For the molecule `Cc1ccc(C23CC4CC(CC2C4)C3)cc1-c1cn2nc(S(N)(=O)=O)sc2n1` [Compound 83], the solubility is below 500 µg/mL.

The molecule `COC(=O)c1ccc(-c2cn3nc(S(N)(=O)=O)sc3n2)cc1` [Compound 76] displayed a solubility below 500 µg/mL.

On to `Br.NS(=O)(=O)c1nn2cc(-c3ccc([N+](=O)[O-])s3)nc2s1` [Compound 132], for which the solubility is below 500 µg/mL.

For `Cc1ccc(-c2cn3nc(S(N)(=O)=O)sc3n2)cc1Cl` [Compound 122], the solubility was below 500 µg/mL.

`Cc1ccc(-c2cn3nc(S(N)(=O)=O)sc3n2)cc1` [Compound 79] had a solubility below 500 µg/mL.

Regarding `NS(=O)(=O)c1nn2cc(-c3cc4ccccc4o3)nc2s1` [Compound 129], the solubility is below 500 µg/mL.
